According to publication PMC3411462, “Long-acting κ opioid antagonists nor-BNI, GNTI and JDTic: pharmacokinetics in mice and lipophilicity” (BMC Pharmacology, 2012):
Entries after “also recorded” stand apart in the source; their conditions may differ. Where two headings read alike, the source gives them in different places. Marks after values point to notes of the source that are not given here.

How the values were obtained:
[1] = Octanol-buffer distribution (log D7.4); type: physicochemical; conditions: for logD / logD at 1 min / logD at 10 min / logD at 30 min: 1-octanol/PBS; for logD: pH 7.4, pooled mixing times 1, 10, 30 min; for logD at 1 min: mixing time 1 min; for logD at 1 min / logD at 10 min / logD at 30 min: octanol/PBS pH 7.4; for logD at 10 min: mixing time 10 min; for logD at 30 min: mixing time 30 min
Method: Phosphate-buffered saline (PBS, pH 7.4) and 1-octanol were mutually saturated by vigorous stirring at room temperature for 18 h, and then separated. Drug solutions of 0.1 mg mL^-1 in PBS were prepared, and 500 μL aliquots were added to 1.5 mL micro-centrifuge tubes with an equal volume of 1-octanol. Three samples were vortex-mixed for 1, 10 and 30 minutes respectively, then centrifuged at room temperature (12,000 rpm for 15 minutes). Aliquots of the upper octanol layer were removed by pipette. A disposable syringe was inserted while bubbling air through the upper layer, an aliquot of the lower PBS layer withdrawn, and the needle removed before transferring. Samples were stored in glass sample vials at −20 °C until analysis by LC-MS-MS.
Drug concentrations (ng mL^-1) refer to the free base, and were measured by liquid chromatography-tandem mass spectrometry (LC-MS-MS) as described previously. Briefly, samples were shaken with 3 volumes of methanol and centrifuged at 3000 g. Aliquots of the supernatants were diluted with 5 volumes of water containing an appropriate internal standard. Extracts from in vitro and in vivo experiments were analyzed by multiple reaction monitoring on an API3000 or API4000 LC-MS-MS system with electrospray ion source, controlled and analyzed using the Analyst software package (Applied Biosystems, Foster City, CA). Chromatography was conducted on a Sprite Armor C18 analytical column (20 × 2.1 mm, 10 μm particle size, Analytical Sales and Products, Pompton Plains, NJ) with a 0.5 μm PEEK guard filter. Compounds were eluted with a gradient from 2% to 95% acetonitrile in water, both containing 0.1% formic acid. Compounds were detected in positive ion mode, tuned to the mass transition with the largest intensity. Analyte concentrations were determined by comparison of analyte:internal standard peak area ratios to those of standards prepared in the appropriate matrices.

human P-gp = biological target: T1, human P-gp (Homo sapiens, UniProt P08183); experiment: LLC-PK1-MDR1 cell permeation and efflux; type: in vitro ADME; conditions: cells expressing human P-gp
T1 construct: expressed in transfected cells; host or cells: LLC-PK1 (pig kidney epithelial cells) transfected with human MDR1 at Amgen
T1 sequence (P08183 whole entry): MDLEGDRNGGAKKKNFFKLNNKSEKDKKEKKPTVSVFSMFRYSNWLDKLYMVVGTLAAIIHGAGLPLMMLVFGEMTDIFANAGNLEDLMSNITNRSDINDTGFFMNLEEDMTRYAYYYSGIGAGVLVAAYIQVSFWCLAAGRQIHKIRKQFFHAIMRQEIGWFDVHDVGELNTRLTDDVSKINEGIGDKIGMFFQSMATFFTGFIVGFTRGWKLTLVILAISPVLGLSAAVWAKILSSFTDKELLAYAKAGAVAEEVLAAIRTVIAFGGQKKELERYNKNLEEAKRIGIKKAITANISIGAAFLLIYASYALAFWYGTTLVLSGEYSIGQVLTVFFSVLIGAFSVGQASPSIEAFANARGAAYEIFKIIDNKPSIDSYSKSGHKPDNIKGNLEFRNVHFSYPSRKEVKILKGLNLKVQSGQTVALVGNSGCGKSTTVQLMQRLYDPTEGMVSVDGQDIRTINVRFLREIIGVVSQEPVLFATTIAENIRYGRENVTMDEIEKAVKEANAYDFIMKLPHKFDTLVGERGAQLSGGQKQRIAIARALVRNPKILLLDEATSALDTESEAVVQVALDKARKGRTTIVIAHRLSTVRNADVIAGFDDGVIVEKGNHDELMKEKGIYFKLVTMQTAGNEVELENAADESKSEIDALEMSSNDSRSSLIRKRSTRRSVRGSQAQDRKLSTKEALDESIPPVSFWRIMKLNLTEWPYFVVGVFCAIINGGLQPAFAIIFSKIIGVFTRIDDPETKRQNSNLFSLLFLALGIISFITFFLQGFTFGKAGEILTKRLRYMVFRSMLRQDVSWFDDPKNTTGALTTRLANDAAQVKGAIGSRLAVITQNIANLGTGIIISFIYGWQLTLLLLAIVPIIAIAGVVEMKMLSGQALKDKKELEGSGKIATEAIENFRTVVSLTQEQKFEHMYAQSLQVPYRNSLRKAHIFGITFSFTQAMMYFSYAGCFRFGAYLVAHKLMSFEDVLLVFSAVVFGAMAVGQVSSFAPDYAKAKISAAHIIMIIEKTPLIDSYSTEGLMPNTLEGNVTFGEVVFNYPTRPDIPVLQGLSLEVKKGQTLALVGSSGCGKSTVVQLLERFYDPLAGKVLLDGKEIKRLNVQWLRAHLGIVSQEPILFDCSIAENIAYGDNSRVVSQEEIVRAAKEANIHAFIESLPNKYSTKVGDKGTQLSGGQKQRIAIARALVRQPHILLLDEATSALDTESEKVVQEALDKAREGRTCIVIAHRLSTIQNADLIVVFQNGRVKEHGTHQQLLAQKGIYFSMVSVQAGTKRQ
Method: (§1) Pig kidney epithelial cells (LLC-PK1) were obtained from American Type Culture Collection (Manassas, VA). Transfection with human MDR1 gene was conducted at Amgen (Thousand Oaks, CA). Bi-directional permeation assays were performed as described previously. […] Cells were seeded onto Transwell filter membranes (0.4 μm pore size, surface area = 0.7 cm2) at a density of 200,000 cells/well. Compound incubations (in duplicate) were performed 5 days post-seeding. To determine efflux, compounds were tested at 5 μM in the presence of 0.1% BSA. […] Samples were analyzed by LC-MS-MS.

P-gp (human MDR1) = biological target: T2, P-gp (human MDR1) (Homo sapiens, UniProt P08183); experiment: LLC-PK1-MDR1 cell permeation and efflux; type: in vitro ADME; conditions: for Papp A→B at 120 min, 5 μM / Papp B→A at 120 min, 5 μM: pig (LLC-PK1 cells) transfected with human MDR1, LLC-PK1, 0.1% BSA, n = 2; for Papp A→B at 120 min, 5 μM: apical to basolateral; for Papp B→A at 120 min, 5 μM: basolateral to apical; for efflux ratio at 120 min, 5 μM: pig (LLC-PK1 cells) transfected with human MDR1, LLC-PK1-MDR1 monolayers, read-out: Efflux ratio (B → A/A → B)
T2 construct: expressed in transfected cells; host or cells: LLC-PK1 (pig kidney epithelial cells) transfected with human MDR1 at Amgen
T2 sequence (P08183 whole entry): as above
Method: as §1

[2] = parameters: method as in PMID 17049114; conditions: mice, i.p.; cited from earlier work
[3] = cited from earlier work
κ opioid receptor = tested on: κ opioid receptor; parameters: method as in PMID 15464069; conditions: intragastric administration; cited from earlier work
Water solubility = type: physicochemical; conditions: distilled water, thermodynamic from solid, 25 °C, salt tested
Method: Distilled water was added slowly by microsyringe to 10–15 mg of drug in a glass vial, swirling until no solid was visible.

[4] = parameters: method as in earlier work; conditions: preliminary reports; cited from earlier work
μ opioid receptor = tested on: μ opioid receptor; parameters: method as in PMID 1326932; conditions: after subcutaneous administration; cited from earlier work

`N=C(N)Nc1ccc2[nH]c3c(c2c1)C[C@@]1(O)[C@H]2Cc4ccc(O)c5c4[C@@]1(CCN2CC1CC1)[C@H]3O5` [GNTI, 5’-guanidinonaltrindole] gave a logD [1] of -0.08, a logD at 1 min [1] of -0.07 and a logD at 10 min [1] of -0.11. The logD at 30 min [1] was -0.0527, the “Log10D7.4 octanol:buffer (pH 7.4)” value ([1]; mean, n = 3) was -0.1 and the “Active transport / P-gp-mediated efflux” value (human P-gp) was “did not; also recorded: No active transport”. It also gave a Papp A→B at 120 min, 5 μM (P-gp (human MDR1)) of 0.4 ×10⁻⁶ cm/s, a Papp B→A at 120 min, 5 μM (P-gp (human MDR1)) of 0.6 ×10⁻⁶ cm/s and an efflux ratio at 120 min, 5 μM (P-gp (human MDR1)) of 1.5. The “Sedation, duration” value [2] was “less than 3 hours”, the “Sedation, time to maximum” value [2] was no more than 20 min and the Water solubility ([3]; 25 °C, ref Tocris product information sheet) was >100^a mmol L^-1. The Water solubility ([3]; ref Tocris product information sheet (Table 1)) was “at least 100 mM”.

Compound `CC(C)[C@@H](CN1CC[C@@](C)(c2cccc(O)c2)[C@@H](C)C1)NC(=O)[C@H]1Cc2ccc(O)cc2CN1` [JDTic, (3R)-7-Hydroxy-N-((1S)-1-{[(3R,4R)-4-(3-hydroxyphenyl)-3,4-dimethyl-1-piperidinyl]methyl}-2-methylpropyl)-1,2,3,4-tetrahydro-3-isoquinolinecarboxamide] has a logD [1] of 1.84, a logD at 1 min [1] of 1.84 and a logD at 10 min [1] of 1.9. For the same compound, the logD at 30 min [1] was 1.77, the “Delay in onset of κ antagonism” value (κ opioid receptor) was “greater than 6 hours” and the “Active transport / P-gp-mediated efflux” value (human P-gp) was “showed P-gp-mediated efflux; also recorded: very high efflux ratio”. The Papp A→B at 120 min, 5 μM (P-gp (human MDR1)) was 0.5 ×10⁻⁶ cm/s, the Papp B→A at 120 min, 5 μM (P-gp (human MDR1)) was 24 ×10⁻⁶ cm/s and the efflux ratio at 120 min, 5 μM (P-gp (human MDR1)) was 48. The solubility (Water solubility) was greater than 45 mM.

`Oc1ccc2c3c1O[C@H]1c4[nH]c5c(c4C[C@@]4(O)[C@@H](C2)N(CC2CC2)CC[C@]314)C[C@@]1(O)[C@H]2Cc3ccc(O)c4c3[C@@]1(CCN2CC1CC1)[C@H]5O4` [nor-BNI, norbinaltorphimine] showed a logD [1] of 1.53, a logD at 1 min [1] of 1.43 and a logD at 10 min [1] of 1.59. The logD at 30 min [1] was 1.57, the “Detection in mouse brain after administration” value [4] was “up to 21 days” and the “Active transport / P-gp-mediated efflux” value (human P-gp) was “did not; also recorded: No active transport”. For the same compound, the Papp A→B at 120 min, 5 μM (P-gp (human MDR1)) was 0.2 ×10⁻⁶ cm/s, the Papp B→A at 120 min, 5 μM (P-gp (human MDR1)) was 0.3 ×10⁻⁶ cm/s and the solubility (Water solubility) was greater than 45 mM. For the same compound, the “μ antagonism, duration” value (μ opioid receptor) was “approximately 4 hours” and the “μ antagonism, time of peak” value (μ opioid receptor) was “approximately 30 minutes”.
